Measurements taken from patent US12568972B2, “Pyridazinol compounds and derivatives, preparation methods, herbicidal compositions and applications thereof” (Qingdao Kingagroot Chemical Compound Co., Ltd., priority 2018, dated 2026).

Tests used:
Test in all cases: Post-emergence test, weed control effect
Format in all cases: in vivo
Amaranthus retroflexus = details: after 3 weeks; for weed control effect, Amaranthus retroflexus (activity level): Dose 3000 g/ha
Method in brief: (§1)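 Activity is expressed as a level from 0 (no effect) to 10 (plant dead), each step matching a further 10% fresh-weight inhibition, assessed 3 weeks post-treatment. Treatment: spray at 2-3 leaf stage of pot-grown plants, compound in acetone, Tween-80 and water with 80% vegetable oil methyl ester synergist at 1500 g/ha.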

Chenopodiaceae = details: after 3 weeks; for weed control effect, Chenopodiaceae (activity level): Dose 3000 g/ha
Method in brief: as §1

Rorippa indica = details: after 3 weeks; for weed control effect, Rorippa indica (activity level): Dose 3000 g/ha
Method in brief: as §1

Veronica polita = details: after 3 weeks; for weed control effect, Veronica polita (activity level): Dose 3000 g/ha
Method in brief: as §1

CC/C(C)=N\Oc1cc(C(F)(F)F)nnc1-c1ccc(C)cc1 [Compound 1-170]
10: weed control effect, Amaranthus retroflexus (activity level) (Amaranthus retroflexus) | weed control effect, Chenopodiaceae (activity level) (Chenopodiaceae) | weed control effect, Rorippa indica (activity level) (Rorippa indica) | weed control effect, Veronica polita (activity level) (Veronica polita)

COc1ccc(Cl)c(-c2nnc(C(F)(F)F)cc2O)c1 [Compound 70]
10: weed control effect (activity level), Amaranthus retroflexus (Amaranthus retroflexus; dose 1000 g/ha) | weed control effect (activity level), Chenopodiaceae (Chenopodiaceae; dose 1000 g/ha) | weed control effect (activity level), Rorippa indica (Rorippa indica; dose 1000 g/ha) | weed control effect (activity level), Veronica polita (Veronica polita; dose 1000 g/ha)

C/C(=N/Oc1cc(C(F)(F)F)nnc1-c1ccc(C)c(C)c1)C(C)(C)C [Compound 1-174]
10: weed control effect, Amaranthus retroflexus (activity level) (Amaranthus retroflexus) | weed control effect, Chenopodiaceae (activity level) (Chenopodiaceae) | weed control effect, Rorippa indica (activity level) (Rorippa indica) | weed control effect, Veronica polita (activity level) (Veronica polita)

Cn1cc(S(=O)(=O)Oc2cc(C(F)(F)F)nnc2-c2cccc(F)c2)cn1 [Compound 1-151]
10: weed control effect, Amaranthus retroflexus (activity level) (Amaranthus retroflexus) | weed control effect, Chenopodiaceae (activity level) (Chenopodiaceae) | weed control effect, Rorippa indica (activity level) (Rorippa indica) | weed control effect, Veronica polita (activity level) (Veronica polita)

CCC(=O)Oc1cc(C(F)(F)F)nnc1-c1ccc(F)cc1 [Compound 1-4]
10: weed control effect, Amaranthus retroflexus (activity level) (Amaranthus retroflexus) | weed control effect, Chenopodiaceae (activity level) (Chenopodiaceae) | weed control effect, Rorippa indica (activity level) (Rorippa indica) | weed control effect, Veronica polita (activity level) (Veronica polita)

COc1ccc(OCC(=O)Oc2cc(C(F)(F)F)nnc2-c2ccc(F)cc2)cc1 [Compound 1-101]
10: weed control effect, Amaranthus retroflexus (activity level) (Amaranthus retroflexus) | weed control effect, Chenopodiaceae (activity level) (Chenopodiaceae) | weed control effect, Rorippa indica (activity level) (Rorippa indica) | weed control effect, Veronica polita (activity level) (Veronica polita)

Oc1cc(C(F)(F)F)nnc1-c1cccc2cccnc12 [Compound 734]
10: weed control effect (activity level), Amaranthus retroflexus (Amaranthus retroflexus; dose 1000 g/ha) | weed control effect (activity level), Chenopodiaceae (Chenopodiaceae; dose 1000 g/ha) | weed control effect (activity level), Rorippa indica (Rorippa indica; dose 1000 g/ha) | weed control effect (activity level), Veronica polita (Veronica polita; dose 1000 g/ha)

CCc1cc(C(F)(F)F)cc(-c2nnc(C(F)(F)F)cc2O)c1C#N [Compound 163]
10: weed control effect (activity level), Amaranthus retroflexus (Amaranthus retroflexus; dose 2000 g/ha) | weed control effect (activity level), Chenopodiaceae (Chenopodiaceae; dose 2000 g/ha) | weed control effect (activity level), Rorippa indica (Rorippa indica; dose 2000 g/ha) | weed control effect (activity level), Veronica polita (Veronica polita; dose 2000 g/ha)

CCOC(=O)Oc1cc(C(F)(F)F)nnc1-c1ccc(F)c(F)c1 [Compound 1-26]
10: weed control effect, Amaranthus retroflexus (activity level) (Amaranthus retroflexus) | weed control effect, Chenopodiaceae (activity level) (Chenopodiaceae) | weed control effect, Rorippa indica (activity level) (Rorippa indica) | weed control effect, Veronica polita (activity level) (Veronica polita)

CSc1cccc(-c2nnc(C(F)(F)F)cc2O)c1 [Compound 95]
10: weed control effect (activity level), Amaranthus retroflexus (Amaranthus retroflexus; dose 1000 g/ha) | weed control effect (activity level), Chenopodiaceae (Chenopodiaceae; dose 1000 g/ha) | weed control effect (activity level), Rorippa indica (Rorippa indica; dose 1000 g/ha) | weed control effect (activity level), Veronica polita (Veronica polita; dose 1000 g/ha)

O=C(Oc1cc(C(F)(F)F)nnc1-c1ccc(F)cc1)c1ccccc1O [Compound 1-85]
10: weed control effect, Amaranthus retroflexus (activity level) (Amaranthus retroflexus) | weed control effect, Chenopodiaceae (activity level) (Chenopodiaceae) | weed control effect, Rorippa indica (activity level) (Rorippa indica) | weed control effect, Veronica polita (activity level) (Veronica polita)

O=C(Oc1cc(C(F)(F)F)nnc1-c1ccccc1)SC1CCCCC1 [Compound 1-58]
10: weed control effect, Amaranthus retroflexus (activity level) (Amaranthus retroflexus) | weed control effect, Chenopodiaceae (activity level) (Chenopodiaceae) | weed control effect, Rorippa indica (activity level) (Rorippa indica) | weed control effect, Veronica polita (activity level) (Veronica polita)

N#Cc1ccc(-c2nnc(C(F)(F)F)cc2O)cn1 [Compound 212]
10: weed control effect (activity level), Amaranthus retroflexus (Amaranthus retroflexus; dose 2000 g/ha) | weed control effect (activity level), Chenopodiaceae (Chenopodiaceae; dose 2000 g/ha) | weed control effect (activity level), Rorippa indica (Rorippa indica; dose 2000 g/ha) | weed control effect (activity level), Veronica polita (Veronica polita; dose 2000 g/ha)

CC/C(CC(C)CC)=N/Oc1cc(C(F)(F)F)nnc1-c1ccnn1C (stereo not drawn) [Compound 1-179]
10: weed control effect, Amaranthus retroflexus (activity level) (Amaranthus retroflexus) | weed control effect, Chenopodiaceae (activity level) (Chenopodiaceae) | weed control effect, Rorippa indica (activity level) (Rorippa indica) | weed control effect, Veronica polita (activity level) (Veronica polita)

Oc1cc(C(F)(F)F)nnc1-c1ccnc(Cl)c1Cl [Compound 222]
10: weed control effect (activity level), Amaranthus retroflexus (Amaranthus retroflexus; dose 2000 g/ha) | weed control effect (activity level), Chenopodiaceae (Chenopodiaceae; dose 2000 g/ha) | weed control effect (activity level), Rorippa indica (Rorippa indica; dose 2000 g/ha) | weed control effect (activity level), Veronica polita (Veronica polita; dose 2000 g/ha)

Oc1cc(C(F)(F)F)nnc1-c1ccc(Cl)c(Cl)c1 [Compound 38]
10: weed control effect (activity level), Amaranthus retroflexus (Amaranthus retroflexus; dose 1000 g/ha) | weed control effect (activity level), Chenopodiaceae (Chenopodiaceae; dose 1000 g/ha) | weed control effect (activity level), Rorippa indica (Rorippa indica; dose 1000 g/ha) | weed control effect (activity level), Veronica polita (Veronica polita; dose 1000 g/ha)

CCS(=O)(=O)Oc1cc(C(F)(F)F)nnc1-c1ccc(F)cc1 [Compound 1-121]
10: weed control effect, Amaranthus retroflexus (activity level) (Amaranthus retroflexus) | weed control effect, Chenopodiaceae (activity level) (Chenopodiaceae) | weed control effect, Rorippa indica (activity level) (Rorippa indica) | weed control effect, Veronica polita (activity level) (Veronica polita)

CCON(C)C(=O)Oc1cc(C(F)(F)F)nnc1-c1ccc(F)cc1 [Compound 1-63]
10: weed control effect, Amaranthus retroflexus (activity level) (Amaranthus retroflexus) | weed control effect, Chenopodiaceae (activity level) (Chenopodiaceae) | weed control effect, Rorippa indica (activity level) (Rorippa indica) | weed control effect, Veronica polita (activity level) (Veronica polita)
